From ChEMBL document CHEMBL1201862, “PubChem BioAssay data set” (2004)
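Compound exposure: 48 hours, 5 concentrations, 96-well plates. Abbreviation: GI50, concentration required for 50% inhibition of growth.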 Calls of active or inactive are those of the source. Cut-off read from the data, not from the text of the source: active = GI50 up to about 1.1 µM and inactive = higher.

Columns and labels:
Experiment in all cases: growth of human tumour cells (NCI), 48 h
CAKI-1 = tested on: CAKI-1
CCRF-CEM = tested on: CCRF-CEM
EKVX = tested on: EKVX
HCC 2998 = tested on: HCC 2998
HCT-15 = tested on: HCT-15
Hs-578T = tested on: Hs-578T
MCF7 = tested on: MCF7
Malme-3M = tested on: Malme-3M
OVCAR-3 = tested on: OVCAR-3
OVCAR-4 = tested on: OVCAR-4
OVCAR-5 = tested on: OVCAR-5
SF-295 = tested on: SF-295
SK-OV-3 = tested on: SK-OV-3
SN12C = tested on: SN12C
SNB-19 = tested on: SNB-19
UACC-62 = tested on: UACC-62
UO-31 = tested on: UO-31
PC-3 = tested on: PC-3
SK-MEL-5 = tested on: SK-MEL-5

| Compound | GI50 (CAKI-1) | GI50 (CCRF-CEM) | GI50 (EKVX) | GI50 (HCC 2998) | GI50 (HCT-15) | GI50 (Hs-578T) | GI50 (MCF7) | GI50 (Malme-3M) | GI50 (OVCAR-3) | GI50 (OVCAR-4) | GI50 (OVCAR-5) | GI50 (SF-295) | GI50 (SK-OV-3) | GI50 (SN12C) | GI50 (SNB-19) | GI50 (UACC-62) | GI50 (UO-31) | GI50 (PC-3) | GI50 (SK-MEL-5) |
| --- | --- | --- | --- | --- | --- | --- | --- | --- | --- | --- | --- | --- | --- | --- | --- | --- | --- | --- | --- |
| COC(=O)CCCC(=O)NC1=C(NCc2ccccc2)C(=O)c2ccccc2C1=O | > 100 µM (inactive) | 36.3 µM (inactive) | 51.4 µM (inactive) | > 100 µM (inactive) | 52.4 µM | > 100 µM (inactive) | 30.3 µM (inactive) | 15.5 µM (inactive) | 23 µM (inactive) | 47.9 µM (inactive) | > 100 µM (inactive) | > 10 µM (inactive) | 45.5 µM (inactive) | 52.5 µM (inactive) | > 100 µM (inactive) | 29.2 µM (inactive) | > 100 µM (inactive) |  |  |
| NNC(=O)c1nnn(N)c1S | 84.5 µM (inactive) | 66.1 µM (inactive) | > 100 µM (inactive) | > 100 µM (inactive) | > 100 µM | > 100 µM (inactive) |  | > 100 µM (inactive) | > 100 µM (inactive) | > 100 µM (inactive) | > 100 µM (inactive) | > 100 µM (inactive) | > 100 µM (inactive) | > 100 µM (inactive) |  | > 100 µM (inactive) | > 100 µM (inactive) | > 100 µM (inactive) | > 100 µM (inactive) |
| O=C1NC(=N/c2ccccc2)/C(=N\c2ccccc2)N1c1ccccc1 | 16.3 µM (inactive) | 30.3 µM (inactive) | 16.7 µM (inactive) | 16.9 µM (inactive) | 14.5 µM | 16.6 µM (inactive) |  | 17.4 µM (inactive) |  | 18.4 µM (inactive) | 18 µM (inactive) | 15.8 µM (inactive) | 17.6 µM (inactive) | 16.4 µM (inactive) | 17 µM (inactive) | 12.7 µM (inactive) | 16.5 µM (inactive) | 14.5 µM (inactive) | 15.9 µM (inactive) |
| O=C(Nc1ccccc1C(=O)NCc1ccccc1)/C(=C/c1ccccc1)NC(=O)c1ccccc1 | > 100 µM (inactive) | > 100 µM (inactive) | > 100 µM (inactive) | > 100 µM (inactive) | > 100 µM | 63.1 µM (inactive) | > 100 µM (inactive) |  | > 100 µM (inactive) | 49.3 µM (inactive) | > 100 µM (inactive) | > 100 µM (inactive) | > 100 µM (inactive) | > 100 µM (inactive) | > 100 µM (inactive) | > 100 µM (inactive) | > 100 µM (inactive) | > 100 µM (inactive) | > 100 µM (inactive) |
| COc1cc([N+](=O)[O-])c(OC)c2c(Nc3ccc(S(=O)(=O)O)c4cc(S(=O)(=O)O)cc(S(=O)(=O)O)c34)cc(C)nc12 | > 100 µM (inactive) | > 100 µM (inactive) | > 100 µM (inactive) |  |  | > 100 µM (inactive) | > 100 µM (inactive) | > 100 µM (inactive) | > 100 µM (inactive) |  | > 100 µM (inactive) |  | > 100 µM (inactive) | > 100 µM (inactive) |  | > 100 µM (inactive) | > 100 µM (inactive) | > 100 µM (inactive) | > 100 µM (inactive) |
| C/C(=N\Nc1nc2ccccc2[nH]1)c1cc2ccccc2cn1 | < 0.01 µM (active) | < 0.01 µM (active) | < 0.0183 µM (active) | 1.45 µM (inactive) | < 0.0106 µM | 0.0612 µM (active) | < 0.01 µM (active) | < 0.01 µM (active) |  | 0.0443 µM (active) | 0.288 µM (active) | 0.166 µM (active) | 0.0465 µM (active) | < 0.01 µM (active) | 0.277 µM (active) | 0.0531 µM (active) | 0.0115 µM (active) |  | 0.0494 µM (active) |
| NC(Cc1ccc(B(O)O)cc1)C(=O)NC(CO)CO (configuration not stated) | > 100 µM (inactive) | > 100 µM (inactive) | > 100 µM (inactive) | > 100 µM (inactive) | > 100 µM | > 100 µM (inactive) |  | > 100 µM (inactive) | > 100 µM (inactive) | > 100 µM (inactive) | > 100 µM (inactive) | > 100 µM (inactive) | > 100 µM (inactive) | > 100 µM (inactive) | > 100 µM (inactive) | > 100 µM (inactive) | > 100 µM (inactive) | > 100 µM (inactive) | > 100 µM (inactive) |
| O=C1C=Cc2cscc21 | 27.4 µM (inactive) | 22.6 µM (inactive) | 46.5 µM (inactive) |  | 22.7 µM | > 100 µM (inactive) | 15.3 µM (inactive) | 27 µM (inactive) | 21.5 µM (inactive) | 81.3 µM (inactive) |  | 49.4 µM (inactive) | > 100 µM (inactive) | 28.1 µM (inactive) | 78.2 µM (inactive) | > 100 µM (inactive) | 26.2 µM (inactive) | 42 µM (inactive) | 81.7 µM (inactive) |
| COc1cc2c(cc1OC)C1CN3CCCC3C(O)C1c1cc(OC)c(OC)cc1-2 (configuration not stated) | > 100 µM (inactive) | 69.3 µM (inactive) | > 100 µM (inactive) | > 100 µM (inactive) | > 100 µM | > 100 µM (inactive) | > 100 µM (inactive) | > 100 µM (inactive) |  | > 100 µM (inactive) | > 100 µM (inactive) | > 100 µM (inactive) | > 100 µM (inactive) | > 100 µM (inactive) | > 100 µM (inactive) | > 100 µM (inactive) | > 100 µM (inactive) |  | > 100 µM (inactive) |
| COc1cc(/C=C2\CCC(C)C3=C2NC(=S)NC3c2cc(OC)c(OC)c(OC)c2)cc(OC)c1OC (configuration not stated) | 81.5 µM (inactive) | 25.2 µM (inactive) | 58.1 µM (inactive) |  | 47.4 µM | 37 µM (inactive) | 35.7 µM (inactive) |  |  | 69 µM (inactive) | > 100 µM (inactive) |  | > 100 µM (inactive) | 68.4 µM (inactive) | 51.8 µM (inactive) | 40 µM (inactive) | 15.8 µM (inactive) | 37.7 µM (inactive) | 23.2 µM (inactive) |
| Oc1ccc(CCc2cc(O)cc(O)c2)cc1 [DIHYDRORESVERATROL] | > 100 µM (inactive) |  | 50.5 µM (inactive) |  | 22.7 µM | > 100 µM (inactive) | > 100 µM (inactive) | > 100 µM (inactive) | > 100 µM (inactive) | > 100 µM (inactive) | > 100 µM (inactive) | > 100 µM (inactive) | > 100 µM (inactive) | 72.3 µM (inactive) | > 100 µM (inactive) | 47.1 µM (inactive) | > 100 µM (inactive) | > 100 µM (inactive) | > 100 µM (inactive) |
| O=C(O)C1[C@@H](C(=O)O)C1(Br)CBr (some centres not stated) | > 100 µM (inactive) |  | > 100 µM (inactive) | > 100 µM (inactive) | > 100 µM | > 100 µM (inactive) | > 100 µM (inactive) |  | > 100 µM (inactive) | > 100 µM (inactive) | > 100 µM (inactive) | > 100 µM (inactive) | > 100 µM (inactive) | > 100 µM (inactive) | > 100 µM (inactive) | > 100 µM (inactive) | > 100 µM (inactive) | > 100 µM (inactive) | > 100 µM (inactive) |
| CN(C)NC(=S)Nc1ccccc1Br | > 100 µM (inactive) | > 100 µM (inactive) | > 100 µM (inactive) |  | > 100 µM | > 100 µM (inactive) | > 100 µM (inactive) | > 100 µM (inactive) | > 100 µM (inactive) | > 100 µM (inactive) | > 100 µM (inactive) | > 100 µM (inactive) | > 100 µM (inactive) |  | > 100 µM (inactive) | > 100 µM (inactive) | > 100 µM (inactive) | > 100 µM (inactive) | > 100 µM (inactive) |
| Cc1cc(Cl)ccc1NC(=O)/C(Cl)=C(/Cl)C(=O)O | 18.3 µM (inactive) | 17.3 µM (inactive) | 19.1 µM (inactive) | 17.9 µM (inactive) | 18.7 µM | 26.4 µM (inactive) | 21.4 µM (inactive) |  | 18.4 µM (inactive) |  | 19.5 µM (inactive) | > 100 µM (inactive) | > 100 µM (inactive) | 18.1 µM (inactive) | > 100 µM (inactive) | 21.5 µM (inactive) | > 100 µM (inactive) | 21.4 µM (inactive) | 50.7 µM (inactive) |
| CC(=O)CCC1(C(=O)OCC(C)C)CCCC1=O (configuration not stated) | > 100 µM (inactive) | > 100 µM (inactive) | > 100 µM (inactive) |  | > 100 µM | > 100 µM (inactive) |  | > 100 µM (inactive) | 63.4 µM (inactive) | > 100 µM (inactive) | > 100 µM (inactive) | > 100 µM (inactive) | > 100 µM (inactive) | > 100 µM (inactive) | > 100 µM (inactive) | > 100 µM (inactive) | > 100 µM (inactive) | > 100 µM (inactive) | > 100 µM (inactive) |
| Cc1ccc2c(=O)c(C(=O)NNC(=S)NC3CCCCC3)c[nH]c2n1 | 59.2 µM (inactive) | 99.5 µM (inactive) | 68.9 µM (inactive) |  | > 100 µM | 64.1 µM (inactive) | 83.6 µM (inactive) | 65.8 µM (inactive) | 71.8 µM (inactive) | 78.9 µM (inactive) | > 100 µM (inactive) | 56.8 µM (inactive) |  | 78.7 µM (inactive) | > 100 µM (inactive) | 62.4 µM (inactive) | > 100 µM (inactive) | 45.4 µM (inactive) | 33.7 µM (inactive) |
| CC(=O)OCC1OC(O[C@H]2C=C[C@@H](C(=O)OCc3ccccc3)n3c(=O)n(-c4ccccc4)c(=O)n32)C(OC(C)=O)C(OC(C)=O)C1OC(C)=O (some centres not stated) | 1.48 µM (inactive) | 0.851 µM (active) | 1.95 µM (inactive) | 1.73 µM (inactive) | 0.741 µM | 1.99 µM (inactive) | 1.17 µM (inactive) |  | 1.79 µM (inactive) | 2.54 µM (inactive) | 2.23 µM (inactive) | 10.6 µM (inactive) | 18.7 µM (inactive) | 1.94 µM (inactive) | 15.7 µM (inactive) | 1.59 µM (inactive) | 1.57 µM (inactive) | 3.69 µM (inactive) | 1.14 µM (inactive) |
